Read-outs that look alike come from different tables or passages of the source.
Columns and labels:
GST-Mdm2 = test: Standard Mdm2 in vitro ubiquitination assay (E1+E2+E3), gel-based with 32P-labeled ubiquitin; assay type: biochemical
Excerpt: The ability of a compound to inhibit E1 activity may also be examined by determining the ability of the compound to inhibit Mdm2 autoubiquitination, which is dependent on E1, as well as E2. For in vitro assays Mdm2 can be expressed as a GST fusion. This allows for a high level of expression of protein that can be purified on glutathione Sepharose. Detection of ubiquitination of Mdm2 can be accomplished, for example, using ^32P-labeled ubiquitin, Western blotting with anti-ubiquitin, or by looking at a shift in the molecular weight of GST fusion by Western blotting with anti-GST. A variety of in vitro assays that measure levels of self-ubiquitinated Mdm2 can be employed, such as for example, immunoprecipitation of ubiquitinated Mdm2; gel assays wherein the amount of ubiquitinated Mdm2 is measured by densitometric scanning or where covalent attachment of radio-labeled or otherwise tagged ubiquitin to Mdm2 or p53 is measured; Western blot analysis, or other known techniques such as ELISA, immunoprecipitation, RIA, and the like. […]

[1] = system: untransformed retinal pigment epithelial cells; test: Growth of untransformed RPE cells, MTT assay; assay type: cell-based
Excerpt: FIG. 6A depicts the induction of growth arrest in untransformed RPE cells by 4-[4-(5-nitro-furan-2-ylmethylene)-3,5-dioxo-pyrazolidin-1-yl]-benzoic acid methyl […], as measured by MTT assay.
While p53 induces apoptotic cell death in many tumor cells, it generally only induces growth arrest in untransformed cells. This has been the rationale for many studies targeting the p53 system.

## COC(=O)c1ccc(N2NC(=O)/C(=C/c3ccc([N+](=O)[O-])o3)C2=O)cc1 [E1-41, 4-[4-(5-nitro-furan-2-ylmethylene)-3,5-dioxo-pyrazolidin-1-yl]-benzoic acid methyl acid]
GST-Mdm2
  Mdm2 autoubiquitination in vitro (high molecular weight species): prevent generation of high molecular weight species promoted by Mdm2 in a dose-dependent manner
GST-Mdm2; listed as compound 41
  Mdm2 autoubiquitination in vitro (high molecular weight species): inhibits autoubiquitination of Mdm2 in vitro
[1]
  effect on growth of untransformed retinal pigment epithelial cells: causes growth arrest
